Ends that are not written are not given here. Peptide text beside a SMILES is read from it.
What follows are compounds tested against T1, recombinant HLA-DR401 (HLA-DRA1*01:01, HLA-DRB1*04:01) (Homo sapiens, UniProt P01903+P01911, A100K/A169T/F76Y/I96L/K127E/L162R/M171V/N62H/P40V/Q125Y/R42H/S133A/S149N/S66Y/V115G/V209L/W38E) (assay: biochemical). Details: not given.
T1 construct: poly-histidine (C); made in house; host or cells: High Five (Hi5) insect cells, baculovirus (pAcGP67a)
Assay type: binding

Compound | IC50 [nM]
CC(C)C[C@H](NC(=O)[C@H](C)NC(=O)[C@H](C)N)C(=O)N[C@@H](CC(N)=O)C(=O)N[C@H](C(=O)N[C@@H](CCC(=O)O)C(=O)N[C@@H](CCCNC(=N)N)C(=O)N[C@H](C(=O)N[C@@H](CS)C(=O)N[C@@H](Cc1c[nH]cn1)C(=O)N[C@@H](CS)C(=O)N[C@@H](Cc1c[nH]c2ccccc12)C(=O)N[C@@H](CCC(=O)O)C(=O)N[C@@H](CCC(=O)O)C(=O)NCC(=O)O)[C@@H](C)O)C(C)C (H-AALNVERTCHCWEEG-OH) | 33.4
AAWVVEHSEVGWEEG | 19.4
CC(C)C[C@H](NC(=O)[C@H](C)NC(=O)[C@H](C)N)C(=O)N[C@@H](CCCNC(=N)N)C(=O)N[C@@H](CCC(=O)O)C(=O)N[C@@H](CCC(=O)O)C(=O)N[C@@H](Cc1c[nH]cn1)C(=O)N[C@H](C(=O)N[C@@H](CS)C(=O)N[C@@H](CCCCN)C(=O)N[C@@H](CS)C(=O)N[C@@H](Cc1c[nH]c2ccccc12)C(=O)N[C@@H](CCC(=O)O)C(=O)N[C@@H](CCC(=O)O)C(=O)NCC(=O)O)[C@@H](C)O (H-AALREEHTCKCWEEG-OH) | 36.9
AAGVIDPTMLGWEEG | 29.3
AAWVPCGDMVSWEEG | 26.5
AAWHGEGSQIGWEEG | 17.5
CC(C)C[C@H](NC(=O)[C@H](C)NC(=O)[C@H](C)N)C(=O)N[C@@H](CO)C(=O)N[C@@H](CC(C)C)C(=O)N[C@@H](CCC(=O)O)C(=O)N[C@@H](CCCNC(=N)N)C(=O)N[C@@H](CO)C(=O)N[C@@H](CS)C(=O)N[C@@H](CCCCN)C(=O)N[C@@H](CS)C(=O)N[C@@H](Cc1c[nH]c2ccccc12)C(=O)N[C@@H](CCC(=O)O)C(=O)N[C@@H](CCC(=O)O)C(=O)NCC(=O)O (H-AALSLERSCKCWEEG-OH) | 24.9
AAWERENDMLGWEEG | 15.2
AAANMDTSLPAWEEG | 180
AAVADDFSCRGWEEG | 47
AGEYRNDPNNLAYNG | 26.5
AAWHNDPACKGWEEG | 40.7
AAWESSTDLVGWEEG | 11.9
CC(C)C[C@H](NC(=O)[C@H](C)NC(=O)[C@H](C)N)C(=O)N[C@H](C(=O)N[C@@H](CC(=O)O)C(=O)N[C@@H](CC(=O)O)C(=O)N1CCC[C@H]1C(=O)N[C@H](C(=O)N[C@@H](CS)C(=O)N[C@@H](CCCNC(=N)N)C(=O)N[C@@H](CS)C(=O)N[C@@H](Cc1c[nH]c2ccccc12)C(=O)N[C@@H](CCC(=O)O)C(=O)N[C@@H](CCC(=O)O)C(=O)NCC(=O)O)[C@@H](C)O)C(C)C (H-AALVDDPTCRCWEEG-OH) | 29.3
AAERKMSVLSAWEEG | 817
AAWDPERTCRAWEEG | 31.8

Same assay, conditions: HLA-DR401; fluorescence polarization competition; Fig3B; read-out: Measured IC50

Compound | IC50 [nM]
VSSFQDILLRMSKMQ | > 50000
CSCC[C@H](NC(=O)[C@H](CO)NC(=O)[C@H](Cc1ccccc1)NC(=O)[C@H](CC(N)=O)NC(=O)[C@H](C)NC(=O)[C@@H](NC(=O)[C@H](Cc1ccccc1)NC(=O)CNC(=O)[C@H](Cc1ccc(O)cc1)NC(=O)[C@H](CCCNC(=N)N)NC(=O)[C@H](Cc1ccc(O)cc1)NC(=O)[C@H](Cc1ccccc1)NC(=O)[C@H](Cc1ccccc1)NC(=O)[C@@H](N)CO)C(C)C)C(=O)N[C@@H](CCC(=O)O)C(=O)O | > 50000
CC(C)C[C@H](N)C(=O)N[C@@H](Cc1ccccc1)C(=O)N[C@@H](CCC(=O)O)C(=O)N[C@@H](CCCCN)C(=O)N[C@@H](Cc1ccccc1)C(=O)N[C@@H](Cc1ccccc1)C(=O)N1CCC[C@H]1C(=O)N[C@@H](CO)C(=O)N[C@@H](CO)C(=O)N[C@@H](CO)C(=O)N[C@@H](Cc1ccc(O)cc1)C(=O)N[C@@H](CCCNC(=N)N)C(=O)N[C@@H](CCCNC(=N)N)C(=O)N1CCC[C@H]1C(=O)N[C@H](C(=O)O)C(C)C | > 50000

Same assay, conditions: SuppFig6C; fluorescence polarization competition, HLA-DR401; read-out: Measured IC50

Compound | IC50 [nM]
AAGFKGEQGPKGYPG | 115
AAEFRNEDGPLGEPG | 79.9

Same assay, conditions: estimated from two-point fluorescence polarization competition assay binding plots, HLA-DR401, N = 3 technical replicates per condition; read-out: IC50 (estimated)

Compound | IC50 [nM]
AAWVRVVPMRAWEEG | < 10
CC(C)C[C@H](NC(=O)CNC(=O)[C@H](CCCNC(=N)N)NC(=O)[C@H](CCC(=O)O)NC(=O)[C@H](CC(C)C)NC(=O)[C@@H](NC(=O)[C@H](Cc1c[nH]c2ccccc12)NC(=O)[C@H](C)NC(=O)[C@H](C)N)C(C)C)C(=O)N[C@@H](CS)C(=O)N[C@@H](CS)C(=O)N[C@@H](Cc1c[nH]c2ccccc12)C(=O)N[C@@H](CCC(=O)O)C(=O)N[C@@H](CCC(=O)O)C(=O)NCC(=O)O (H-AAWVLERGLCCWEEG-OH) | 34
AALGLDLRAYVWEEG | 7000
AAYSVEPCYRMWEEG | 37
AARYATSKSKGWEEG | 9520
AAFLGEWSLLSWEEG | < 10
AAVNDQLTVNSWEEG | 4500
AASFLSDSVMGWEEG | < 10

Same assay, conditions: fluorescence polarization competition; […]; competitor 20 µM to 1.28 nM in five-fold dilutions; n = 3 replicates; read-out: Measured IC50

Compound | IC50 [nM]
YWKQWLSLRNPILVF | 2510

Same assay, conditions: fluorescence polarization peptide competition, HLA-DR401; sheet Fig7; read-out: Measured IC50

Compound | IC50 [nM]
AAGFPGEQGPKGEPG | > 50000
WRAPSYILSPELTQRLFSAA | 248
EVKYCTFSKDRSKPIPGMTL | > 50000
CC(C)C[C@H](NC(=O)[C@H](CCC(=O)O)NC(=O)[C@H](CC(N)=O)NC(=O)[C@H](CC(C)C)NC(=O)[C@H](CCC(N)=O)NC(=O)[C@@H](NC(=O)[C@H](CO)NC(=O)[C@H](CO)NC(=O)[C@H](CS)NC(=O)[C@H](CO)NC(=O)[C@H](CC(C)C)NC(=O)[C@H](CCCNC(=N)N)NC(=O)[C@H](Cc1ccccc1)NC(=O)[C@H](CC(C)C)NC(=O)[C@H](CCC(N)=O)NC(=O)[C@@H]1CCCN1C(=O)[C@H](CC(C)C)NC(=O)[C@H](CC(=O)O)NC(=O)[C@H](CS)NC(=O)[C@@H](N)Cc1ccc(O)cc1)[C@@H](C)O)C(=O)O (H-YCDLPQLFRLSCSSTQLNEL-OH) | 39.3
ASDSSYRNECPMAEKEDTQM | 47.4
YVGDMLAWLHQSTASEKEHL | 406
LLPVKQSVVPLAKGTLITHC | 307
YSIEVLLVLDDSVVRFHGKE | > 50000
FVGNIAEDLCLDITKLSARG | 86
ESSISDKNYWKTVSNAFSVI | 24.7
RKDLIVMLMDTDVNKQDKQK | 3170
CC[C@H](C)[C@H](NC(=O)CNC(=O)[C@@H](NC(=O)[C@H](CCSC)NC(=O)CNC(=O)[C@H](CCSC)NC(=O)[C@@H](NC(=O)[C@H](CC(N)=O)NC(=O)[C@H](CC(=O)O)NC(=O)[C@@H](NC(=O)[C@@H]1CCCN1C(=O)[C@H](CCC(=O)O)NC(=O)[C@@H](NC(=O)CNC(=O)[C@H](Cc1c[nH]c2ccccc12)NC(=O)[C@H](CC(N)=O)NC(=O)[C@H](CCC(N)=O)NC(=O)[C@H](Cc1ccccc1)NC(=O)[C@@H](N)CC(C)C)C(C)C)[C@@H](C)CC)C(C)C)[C@@H](C)CC)C(=O)N[C@@H](CC(C)C)C(=O)O | 2520
CC[C@H](C)[C@H](NC(=O)[C@H](C)NC(=O)[C@H](CC(=O)O)NC(=O)[C@H](Cc1ccc(O)cc1)NC(=O)[C@H](CC(C)C)NC(=O)[C@@H]1CCCN1C(=O)[C@@H](NC(=O)CNC(=O)[C@@H](N)CCC(=O)O)[C@@H](C)CC)C(=O)N[C@@H](CCCCN)C(=O)N[C@@H](CS)C(=O)N[C@@H](CCSC)C(=O)N[C@@H](CCCNC(=N)N)C(=O)N[C@H](C(=O)N[C@@H](Cc1ccccc1)C(=O)N[C@@H](Cc1ccccc1)C(=O)NCC(=O)N[C@@H](Cc1c[nH]c2ccccc12)C(=O)N[C@@H](CCCCN)C(=O)N[C@@H](CCC(=O)O)C(=O)O)[C@@H](C)O | 61.4
VYGWATLVSERSNNGMQRIL | 94
MKRRPVWTDINPKAVTNDEL | 21
PIPVIFHRIATELRKTNDIN | 698
PIPVIFHRIATELSKTNDIN | 42.1

Same assay, conditions: read-out: Measured IC50

Compound | IC50 [nM]
VSSFQDILLRMSKMQ | > 50000
AAGFKGEQGPKGEPG | 2910
AAGFPGEQGPKGEPG | > 50000
EVKYCTFSKDRSKPIPGMTL | > 50000
CSCC[C@H](NC(=O)[C@H](CO)NC(=O)[C@H](Cc1ccccc1)NC(=O)[C@H](CC(N)=O)NC(=O)[C@H](C)NC(=O)[C@@H](NC(=O)[C@H](Cc1ccccc1)NC(=O)CNC(=O)[C@H](Cc1ccc(O)cc1)NC(=O)[C@H](CCCNC(=N)N)NC(=O)[C@H](Cc1ccc(O)cc1)NC(=O)[C@H](Cc1ccccc1)NC(=O)[C@H](Cc1ccccc1)NC(=O)[C@@H](N)CO)C(C)C)C(=O)N[C@@H](CCC(=O)O)C(=O)O | > 50000
AAGFKGEQGPKGGPG | 12100
AAFFGWEWGPDGEPG | 5670
AIGFKGEQGPKGGVG | 23300
CC(C)C[C@H](N)C(=O)N[C@@H](Cc1ccccc1)C(=O)N[C@@H](CCC(=O)O)C(=O)N[C@@H](CCCCN)C(=O)N[C@@H](Cc1ccccc1)C(=O)N[C@@H](Cc1ccccc1)C(=O)N1CCC[C@H]1C(=O)N[C@@H](CO)C(=O)N[C@@H](CO)C(=O)N[C@@H](CO)C(=O)N[C@@H](Cc1ccc(O)cc1)C(=O)N[C@@H](CCCNC(=N)N)C(=O)N[C@@H](CCCNC(=N)N)C(=O)N1CCC[C@H]1C(=O)N[C@H](C(=O)O)C(C)C | > 50000
CSCC[C@H](NC(=O)[C@H](CO)NC(=O)[C@@H](NC(=O)[C@H](Cc1ccccc1)NC(=O)[C@H](CC(N)=O)NC(=O)[C@@H](NC(=O)[C@@H](N)C(C)C)C(C)C)C(C)C)C(=O)N[C@@H](CCC(=O)O)C(=O)N[C@@H](Cc1ccccc1)C(=O)N[C@@H](CO)C(=O)N[C@@H](CC(C)C)C(=O)N[C@H](C(=O)N[C@@H](CC(=O)O)C(=O)N1CCC[C@H]1C(=O)N[C@@H](CCCNC(=N)N)C(=O)O)[C@@H](C)O | 7970
YSIEVLLVLDDSVVRFHGKE | > 50000
CSCC[C@H](NC(=O)[C@H](Cc1ccc(O)cc1)NC(=O)CNC(=O)[C@@H](N)CCCCN)C(=O)N[C@@H](Cc1ccccc1)C(=O)N[C@@H](CCC(=O)O)C(=O)N[C@@H](CO)C(=O)N[C@@H](CCCCN)C(=O)N[C@@H](CO)C(=O)N[C@@H](CCSC)C(=O)N[C@@H](CCCCN)C(=O)N[C@@H](CC(C)C)C(=O)N[C@@H](CCCNC(=N)N)C(=O)N[C@H](C(=O)N[C@@H](CCC(N)=O)C(=O)O)[C@@H](C)O | 38700
CSCC[C@H](NC(=O)[C@H](CCCNC(=N)N)NC(=O)[C@@H](N)CO)C(=O)N[C@@H](CCC(N)=O)C(=O)N[C@@H](Cc1ccccc1)C(=O)N[C@@H](CO)C(=O)N[C@@H](CO)C(=O)N[C@@H](Cc1ccccc1)C(=O)N[C@H](C(=O)N[C@H](C(=O)N[C@@H](CC(N)=O)C(=O)N[C@H](C(=O)N[C@@H](CCCNC(=N)N)C(=O)NCC(=O)N[C@@H](CO)C(=O)O)C(C)C)C(C)C)[C@@H](C)O | 3380

— PMC7473865, “Repertoire-scale determination of class II MHC peptide binding via yeast display improves antigen prediction” (Nature Communications, 2020)
